Measured values reported in patent US12275685B2, “Oligo-benzamide analogs and their use in cancer treatment” (Board of Regents, The University of Texas System, priority 2018, dated 2025).

Key:
[1] = test system: estrogen receptor-positive, estrogen receptor-negative and therapy resistant ERMT cells; experiment: MTT assay of TK41 on breast cancer cells; assay type: cell-based
Protocol: FIGS. 2A-2C show the potency of TK41 (IC50 from 50-500 nM) on estrogen receptor-positive (FIG. 2A), estrogen receptor-negative (FIG. 2B) and therapy resistant ERMT (FIG. 2C) cells determined by MTT assay.

[2] = test system: triple-negative breast cancer cells (TNBC); experiment: Growth inhibition of TNBC cells; assay type: cell-based
Description: FIGS. 10A & 10B show effects of TK208 against cancer cells.
TNBC is difficult to be treated and currently there are no good drugs available in the market.
In addition, another tris-benzmaide compound TK208 was synthesized and tested against breast cancer and ovarian cancer cell lines (FIGS. 10-15). […] These compounds (e.g., TK41, TK208, TK308 (FIG. 21), TK309 (FIG. 22), TK314, TK315) are extremely potent compounds that inhibit tumor growth and kill breast and ovarian cancer cells and as such, they are superb therapeutic candidates for such diseases.

[3] = test system: normal human mammary epithelial cells (HMEC); experiment: WST, MTT or CellTiter-Glo assays in HMEC; assay type: cell-based; conditions: at >1 μM
Description: (§1) FIGS. 34A-C: Dose response curve of ERX-41 in multiple TNBC. cell lines using WST-1 assays (FIG. 34A) and CellTiter-Glo assays (FIG. 34B). […] Quantification of the number of dead cells over time seen with live cell imaging in MDAMB-231 and HMEC cells is shown.
(§2) To evaluate the generalizability of the inventors' findings, they evaluated ERX-41 in a large number of TNBC and ERa-positive cell lines.

TNBC cells = experiment: Live cell imaging with SYTOX Green, TNBC; assay type: cell-based; conditions: within 30 hours of treatment
Description: as §1, §2

HMEC cells = experiment: Live cell imaging with SYTOX Green, HMEC; assay type: cell-based, human
Description: as §1, §2

[4] = Pharmacokinetic studies of ERX-41; assay type: in vivo, mice
Protocol: FIGS. 35A-P: ERX-41 is potent against TNBC in vivo. (FIG. 35A) Following establishment of subcutaneous MDA-MB-231 xenograft tumors (200 mm^3), 10 mg/kg single dose ERX-41 was administered either by oral or intraperitoneal route. The tumor was harvested 0, 0, 5, 1, 5, 3, 6 and 24 h after drug administration and the drug levels assayed by LC-MS/MS and graphed. (FIGS. 35B-E) Following establishment of MDA-MB-231 xenografts in mammary fat pad in vivo (100 mm^3 size), daily administration of 10 mg/kg ERX-41 or vehicle control (N=8 each group) was initiated. Tumor volumes were measured using digital calipers and graphed (FIG. 35B). Tumor weights (FIG. 35C), body weights (FIG. 35D) and extirpated tumors (FIG. 35E) at end of study are also shown. (FIGS. 35F-H) Following establishment of D2A1 syngeneic xenografts in mammary fat pad in vivo (100 mm^3 size), daily administration of 10 mg/kg ERX-41 or vehicle control (N=8 each group) was initiated. Tumor volumes were measured using digital calipers and graphed (FIG. 35F) along with tumor weights (FIG. 35G) and body weights (FIG. 35H). (FIGS. 35I-P) Effect of ERX-41 on the growth (FIG. 351, FIG. 35K, FIG. 35M, FIG. 35O) and tumor weights (FIG. 35J, FIG. 35L, FIG. 35N, FIG. 35P) of four distinct TNBC PDXs compared to vehicle. *p<0.05. **p<0.01; ***p<0.001.
Additionally, ERX-41 was detectable within 1.5 h in established subcutaneous MDA-MB-231 xenograft tumors after oral or intraperitoneal administration (FIG. 35A). […] ERX-41 decreased tumor growth, as shown by extirpated tumor sizes at the end of study (FIG. 35C and FIG. 35E). […] The inventors validated the activity of ERX-41 in four distinct TNBC PDXs established in the mammary fat pad (FIGS. 35I-P).

[5] = test system: parental SUM-159 xenografts; experiment: Parental SUM-159 xenografts; assay type: in vivo, SCID mice; conditions: 10 mg/kg daily
Description: (§3) FIGS. 37A-J: The molecular target of ERX-41 in TNBC is LIPA. […] (FIG. 37B) Knockout clones of LIPA, ACACA, TMEM208, SOAT1 and ARID1A were generated in MDA-MB-231 cells and evaluated for response to ERX-41 using doseresponse curves using CellTiter-Glo assays in vitro. (FIGS. 37C-D) Effect of knockout of LIPA in SUM-159 (FIG. 37C) and MDA-MB436 (FIG. 37D) on dose response curve to ERX-41 using CellTiter-Glo assays in vitro. (FIGS. 37E-F) Dose response curves of SUM-159 parental cells and clones with LIPA KO to thapsigargin (FIG. 37E) and paclitaxel (FIG. 37F). (FIGS. 37G-H) Live cell imaging studies with SYTOX Green to examine ability of 1 μM ERX-41 to induce cell death in parental SUM-159 and SUM-159 clones with LIPA KO, with quantitation (FIG. 37G) and time-lapsed photomicrographs at 0 h and 30 h ((FIG. 37H). (FIGS. 37I-J) SCID mice were implanted with either parental SUM-159 or SUM-159 clones with LIPA KO (n=6, each group) and tumors were allowed to establish (150 mm^3). Following daily intraperitoneal administration of 10 mg/kg ERX-41, tumor sizes were measured and graphed (FIG. 37I), along with mice body weights (FIG. 37J). *p<0.05. **p<0.01; ***p<0.001.
(§4) The molecular target of ERX-41 in TNBC is LIPA. […] Knockout clones of LIPA, SLC5A3, SMAP2, TMEM208, SOAT1 and ARID1A were generated in multiple TNBC cells and evaluated for response to ERX-41.

[6] = test system: xenografts of SUM-159 with LIPA KO; experiment: SUM-159 LIPA KO xenografts; assay type: in vivo, SCID mice; conditions: 10 mg/kg daily
Description: as §3, §4

## CC(C)COc1cc(C(=O)Nc2ccc(C(=O)N[C@H]3CC[C@H](C)CC3)cc2OCC(C)C)ccc1NC(=O)c1ccc([N+](=O)[O-])c(OCCO)c1 [TK41]
[1]; ER-positive, ER-negative and therapy resistant ERMT cells, MTT assay
  IC50: 50 to 500 nM
[1]; endocrine therapy resistant breast cancer cells
  effect on endocrine therapy resistant breast cancer cells: very effective
[2]
  IC50: < 100 nM
[3]
  effect against HMEC: did not have significant effect
TNBC cells
  cell death, share of cells: > 90%
HMEC cells
  cell death in HMEC: did not significantly induce cell death
[4]; mouse, in vivo, po
  oral bioavailability: orally bioavailable
[4]; oral, 10 mg/kg single dose
  time of peak detectable levels in the plasma: 4 h
[4]; subcutaneous MDA-MB-231 xenograft tumors, oral or intraperitoneal
  time until detectable in tumors: ≤ 1.5 h
[5]
  response of parental SUM-159 xenografts: responded significantly
[6]
  response of SUM-159 LIPA KO xenografts: did not respond
